Values of other authors in US8318912B2, “Targeted immune conjugate comprising an antibody to glycophorin A and a M2e peptide” (priority 2006, dated 2012).
pKd: −log10 of the molar value.

Target: vitamin B12-binding protein
Conditions: alternative docking pair to biotin-avidin; read-out: Kd of vitamin B12 bound by vitamin B12-binding protein

cyanocobalamin [vitamin B12]
pKd: 10.00
